Results on 2 molecules are retold here after paper PMC8352984, “Estrogen mediates sex differences in preoptic neuropeptide and pituitary hormone production in medaka” (Communications Biology, 2021).

Molecules are shown by their SMILES.

In assay [1] the test system is adcyap1-expressing neurons in the PMp. The assay can be described thus: Gonadectomy and sex steroid treatment, in situ hybridization of adcyap1 in PMp. The format is in vivo, medaka (Oryzias latipes). The conditions noted are these: 100 ng ml^-1 in water, 6 days; for number of adcyap1-expressing neurons in PMp: castrated (CX) males. An excerpt: (§1) Fig. 4 Sex-biased expression of adcyap1 and vip in the POA is established by ovarian estrogen. a Levels of adcyap1 and vip expression in the brain of sex-reversed XX males and XY females versus typical XY males and XX females (n = 8 per group). b Number of adcyap1- and vip-expressing neurons in the PMp of sex-reversed XX males and XY females (n = 5 per group). c Representative micrographs showing adcyap1 and vip expression in the PMp of sex-reversed XX males and XY females. Scale bars represent 50 μm. d Number of adcyap1- and vip-expressing neurons in the PMp of sham-operated (sham) males and castrated males exposed to vehicle alone (CX), 11-ketotestosterone (CX + KT), or estradiol-17β (CX + E2) (n = 5 per group, except CX + E2 for adcyap1 and CX + KT for vip, where n = 4). e Representative micrographs showing adcyap1 and vip expression in the PMp of sham, CX, CX + KT, and CX + E2 males. Scale bars represent 50 μm. f Number of adcyap1- and vip-expressing neurons in the PMp of sham females and ovariectomized females exposed to vehicle alone (OVX), KT (OVX + KT), or E2 (OVX + E2) (n = 5 per group). g Representative micrographs showing adcyap1 and vip expression in the PMp of sham, OVX, OVX + KT, and OVX + E2 females. Scale bars represent 50 μm. Quantitative data were expressed as means with error bars representing standard error of the mean. Statistical differences were assessed by Bonferroni’s post-hoc test (a, d, f) and unpaired t-test (b). *p < 0.05; **p < 0.01; ***p < 0.001.
(§2) For both males and females, the gonad was removed under 0.02% tricaine methane sulfonate anesthesia (Sigma–Aldrich, St. Louis, MO, USA) through a small incision in the ventrolateral abdominal wall. Immediately after removal of the gonad, the incision was sutured with nylon thread. Sham-operated fish underwent the same surgical treatment as gonadectomized fish except for gonad removal. After a recovery period of 3 days in saline (0.9% (w v^−1) NaCl), gonadectomized fish were immersed in water containing 100 ng ml^−1 of KT (Cosmo Bio, Tokyo, Japan) or E2 (Fujifilm Wako Pure Chemical Corporation), or vehicle (ethanol) alone for 6 days and then sampled. Sham-operated fish were treated with vehicle alone and used as controls. The sex steroid concentration used was based on previously reported serum steroid levels in medaka.
(§3) The procedure for single-label in situ hybridization has been described elsewhere. In brief, the brain and pituitary were fixed in 4% paraformaldehyde (PFA) and embedded in paraffin. Serial coronal sections of 10 μm thickness were cut and hybridized with each of the six DIG-labeled Adcyap1/Vip receptor probes described above and the DIG-labeled adcyap1 and vip probes used for northern blot analysis. Hybridization signals were visualized by using alkaline phosphatase-conjugated anti-DIG antibody and 5-bromo-4-chloro-3-indolyl phosphate/nitro blue tetrazolium (BCIP/NBT) substrate (Roche Diagnostics). Color development was allowed to proceed for more than 9 h or was stopped after 1.5 h to avoid saturation (for quantification of vip expression after gonadectomy and sex steroid replacement). All sections in each comparison were processed simultaneously under the same conditions.
(§4) To obtain quantitative data, the number of neurons positive for a hybridization signal was counted manually in each brain nucleus. In some brain regions, these neurons were continuously distributed across two or more nuclei such that it was difficult to count the number of the neurons separately in each nucleus. In this case, the total number of the neurons in the nuclei was counted. For the pituitary and nuclei where these neurons were tightly clustered and their exact number could not be determined, sections were photographed and converted to black and white binary images by thresholding using Adobe Photoshop (ver. 22; Adobe Systems, San Jose, CA, USA). […]

Assay [2] concerns vip-expressing neurons in the PMp. Description: Gonadectomy and sex steroid treatment, in situ hybridization of vip in PMp. The format is in vivo, medaka (Oryzias latipes). The note with it: 100 ng ml^-1 in water, 6 days; for number of vip-expressing neurons in PMp: castrated (CX) males.
Text: as §1, §2, §3, §4

[3] abbreviates: ovariectomized females, effect on the ovariectomy-induced increase.
Where [4] appears, read: ovariectomized females, effect on the ovariectomy-induced reduction.

Take `C[C@]12CC[C@@H]3c4ccc(O)cc4CC[C@H]3[C@@H]1CC[C@@H]2O` [E2, estradiol-17β]: the “number of adcyap1-expressing neurons in PMp” value in assay [1] (fish 1 (Fig. 4d)) was determined as 56.0; in assay [1] (fish 3 (Fig. 4d)), 85.0; in assay [1] (fish 4 (Fig. 4d)), 112.0; in assay [1] (fish 5 (Fig. 4d)) it was 79.5. The “number of adcyap1-expressing neurons in PMp (in words)” value in assay [1] (castrated males) was “significantly reduced adcyap1-expressing neurons”; in assay [1] (setting [3]) it was “completely abolished”. For the same molecule, the “number of vip-expressing neurons in PMp” value in assay [2] (fish 1 (Fig. 4d)) is reported as 260.0; in assay [2] (fish 2 (Fig. 4d)) it was 388.5; in assay [2] (fish 3 (Fig. 4d)), 363.0; in assay [2] (fish 4 (Fig. 4d)), 447.0; in assay [2] (fish 5 (Fig. 4d)), 311.0. Further, the “number of vip-expressing neurons in PMp (in words)” value was “increased vip-expressing neurons” in assay [2] (castrated males) and “restored” in assay [2] (setting [4]).

For the molecule `C[C@]12CC(=O)[C@H]3[C@@H](CCC4=CC(=O)CC[C@@]43C)[C@@H]1CC[C@@H]2O` [KT, 11-ketotestosterone], the “number of adcyap1-expressing neurons in PMp” value in assay [1] (fish 1 (Fig. 4d)) turned out to be 198.0; in assay [1] (fish 2 (Fig. 4d)), 271.0; in assay [1] (fish 3 (Fig. 4d)), 273.5; in assay [1] (fish 4 (Fig. 4d)), 161.5; in assay [1] (fish 5 (Fig. 4d)), 147.0. The “number of adcyap1-expressing neurons in PMp (in words)” value is given as “did not affect either of these neurons” in assay [1] (castrated males) and “had no such effect” in assay [1] (setting [3]). Moreover, the “number of vip-expressing neurons in PMp” value in assay [2] (fish 1 (Fig. 4d)) is 98.5; in assay [2] (fish 3 (Fig. 4d)), 118.0; in assay [2] (fish 4 (Fig. 4d)) it was 84.5; in assay [2] (fish 5 (Fig. 4d)), 192.5. Besides, the “number of vip-expressing neurons in PMp (in words)” value in assay [2] (castrated males) was “did not affect either of these neurons”; in assay [2] (setting [4]) it was “not KT treatment”.
